Measured values as given in patent US11739074B2, “Ras inhibitors” (Revolution Medicines, Inc., priority 2019, dated 2023).

Each compound was assayed on AsPC-1 (K-Ras G12D) (assay: CellTiter-Glo cell viability assay, AsPC-1). Settings: Homo sapiens, ASPC1, 120 h, AsPC-1, K-Ras G12D, 5-day treatment; read-out: AsPC-1 Cell Viability IC50.
Type: cell-based
Experimental: Determination of Cell Viability in RAS Mutant Cancer Cell Lines
Protocol: CellTiter-Glo® Cell Viability Assay
Note—The following protocol describes a procedure for monitoring cell viability of K-Ras mutant cancer cell lines in response to a compound of the invention. Other RAS isoforms may be employed, though the number of cells to be seeded will vary based on cell line used.
Test compounds (132.5 nL) were directly dispensed into the assay plates containing cells. […] On day 5, assay plates and their contents were equilibrated to room temperature for approximately 30 minutes. […] Luminescence was measured using the PerkinElmer Enspire. Data were normalized by the following: (Sample signal/Avg. DMSO)*100. The data were fit using a four-parameter logistic fit.

| Compound | IC50 [µM] |
| --- | --- |
| CCn1c(-c2cnccc2COC)c2c3cc(ccc31)-c1cccc(c1)C[C@H](NC(=O)[C@H](C(C)C)N(C)C(=O)CCN=C=Nc1ccc(OC)cc1)C(=O)N1CCC[C@H](N1)C(=O)OCC(C)(C)C2 [15 A and B] | > 10 |
| CCn1c(-c2cnccc2COC)c2c3cc(ccc31)-c1cc(O)cc(c1)C[C@H](NC(=O)[C@H](C(C)C)N(C)C(=O)c1ccc(NC(=O)[C@H]3CN3)cn1)C(=O)N1CCC[C@H](N1)C(=O)OCC(C)(C)C2 [47 A and B] | > 10 |
| CCn1c(-c2cnccc2COC)c2c3cc(ccc31)-c1cccc(c1)C[C@H](NC(=O)[C@H](C(C)C)N(C)C(=O)CCN=C=NCc1ccc(OC)cc1OC)C(=O)N1CCC[C@H](N1)C(=O)OCC(C)(C)C2 [61 A and B] | 1 to 10 |
| CCn1c(-c2cnccc2COC)c2c3cc(ccc31)-c1cccc(c1)C[C@H](NC(=O)[C@H](C(C)C)N(C)C(=O)CC1(N=C=Nc3ccc(OC)cc3)CC1)C(=O)N1CCC[C@H](N1)C(=O)OCC(C)(C)C2 [65 A and B] | 1 to 10 |
| CCn1c(-c2cnccc2COC)c2c3cc(ccc31)-c1cccc(c1)C[C@H](NC(=O)[C@H](C(C)C)N(C)C(=O)CCN=C=NCc1ccccc1C)C(=O)N1CCC[C@H](N1)C(=O)OCC(C)(C)C2 [82 A and B] | 1 to 10 |
| CCn1c(-c2cccnc2[C@H](C)OC)c2c3cc(ccc31)-c1cccc(c1)C[C@H](NC(=O)[C@H](C(C)C)N(C)C(=O)CCN=C=NCc1ccccc1OC)C(=O)N1CCC[C@H](N1)C(=O)OCC(C)(C)C2 [Compound 73] | 1 to 10 |
| CCn1c(-c2cccnc2[C@H](C)OC)c2c3cc(ccc31)-c1cccc(c1)C[C@H](NC(=O)[C@H](C(C)C)N(C)C(=O)[C@H]1CC[C@H](N=C=NCc3ccccc3OC)C1)C(=O)N1CCC[C@H](N1)C(=O)OCC(C)(C)C2 [Compound 76] | 1 to 10 |
| CCn1c(-c2cnccc2COC)c2c3cc(ccc31)-c1cccc(c1)C[C@H](NC(=O)[C@H](C(C)C)N1CC[C@@H](CN=C=NCCOC)C1)C(=O)N1CCC[C@H](N1)C(=O)OCC(C)(C)C2 [Compound 80] | 1 to 10 |
| CCn1c(-c2cnccc2COC)c2c3cc(ccc31)-c1cc(O)cc(c1)C[C@H](NC(=O)[C@H](C(C)C)N(C)C(=O)CN1C(=O)[C@H]3N[C@H]3C1=O)C(=O)N1CCC[C@H](N1)C(=O)OCC(C)(C)C2 [Compound 98] | > 10 |
| CCn1c(-c2cccnc2[C@H](C)OC)c2c3cc(ccc31)-c1cc(O)cc(c1)C[C@H](NC(=O)[C@H](C(C)C)N1CCC3(CN(C(=O)[C@@H]4CN4)C3)C1=O)C(=O)N1CCC[C@H](N1)C(=O)OCC(C)(C)C2 [Compound 109] | > 10 |
| CCn1c(-c2cccnc2[C@H](C)OC)c2c3cc(ccc31)-c1cc(O)cc(c1)C[C@H](NC(=O)[C@H](C(C)C)N1CCC3(CN(C(=O)[C@H]4CN4)C3)C1=O)C(=O)N1CCC[C@H](N1)C(=O)OCC(C)(C)C2 [Compound 115] | > 10 |
| CCn1c(-c2cccnc2[C@H](C)OC)c2c3cc(ccc31)-c1cccc(c1)C[C@H](NC(=O)[C@H](C(C)C)N(C)C(=O)[C@H]1C[C@H](N=C=Nc3c(C)cccc3C)C1)C(=O)N1CCC[C@H](N1)C(=O)OCC(C)(C)C2 [Compound 126] | > 10 |
| CCn1c(-c2cccnc2[C@H](C)OC)c2c3cc(ccc31)-c1cc(O)cc(c1)C[C@H](NC(=O)[C@H](C(C)C)N1CC[C@@]3(CCN(C(=O)[C@@H]4N[C@@H]4C4CC4)C3)C1=O)C(=O)N1CCC[C@H](N1)C(=O)OCC(C)(C)C2 [Compound 128] | 1 to 10 |
| CCn1c(-c2cccnc2[C@H](C)OC)c2c3cc(ccc31)-c1cc(O)cc(c1)C[C@H](NC(=O)[C@H](C(C)C)N1CC[C@@H](NC(=O)[C@H]3CN3)C1=O)C(=O)N1CCC[C@H](N1)C(=O)OCC(C)(C)C2 [Compound 130] | > 10 |
| CCn1c(-c2cccnc2[C@H](C)OC)c2c3cc(ccc31)-c1cc(O)cc(c1)C[C@H](NC(=O)[C@H](C(C)C)N(C)C(=O)c1ccc([C@@H]3CN3)cc1)C(=O)N1CCC[C@H](N1)C(=O)OCC(C)(C)C2 [Compound 131] | > 10 |
| CCn1c(-c2cccnc2[C@H](C)OC)c2c3cc(ccc31)-c1cc(O)cc(c1)C[C@H](NC(=O)[C@H](C(C)C)N(C)C(=O)N1CCN(C(=O)[C@H]3CN3)C(=O)C1)C(=O)N1CCC[C@H](N1)C(=O)OCC(C)(C)C2 [Compound 143] | > 10 |
| CCn1c(-c2cccnc2[C@H](C)OC)c2c3cc(ccc31)-c1cc(O)cc(c1)C[C@H](NC(=O)[C@H](C(C)C)N(C)C(=O)c1ccc([C@H]3CN3)cc1)C(=O)N1CCC[C@H](N1)C(=O)OCC(C)(C)C2 [Compound 145] | > 10 |
| CCn1c(-c2cccnc2[C@H](C)OC)c2c3cc(ccc31)-c1cc(O)cc(c1)C[C@H](NC(=O)[C@H](C(C)C)N(C)C(=O)C1CC3(C1)CN(C(=O)[C@@H]1CN1)C3)C(=O)N1CCC[C@H](N1)C(=O)OCC(C)(C)C2 [Compound 180] | > 10 |
| CCn1c(-c2cccnc2[C@H](C)OC)c2c3cc(ccc31)-c1cc(O)cc(c1)C[C@H](NC(=O)[C@H](C(C)C)N(C)C(=O)N1CC(NC(=O)[C@@H]3CN3)C1)C(=O)N1CCC[C@H](N1)C(=O)OCC(C)(C)C2 [Compound 188] | > 10 |
| CCn1c(-c2cccnc2[C@H](C)OC)c2c3cc(ccc31)-c1cc(O)cc(c1)C[C@H](NC(=O)[C@H](C(C)C)N(C)C(=O)N1CC(NC(=O)[C@H]3CN3)C1)C(=O)N1CCC[C@H](N1)C(=O)OCC(C)(C)C2 [Compound 189] | > 10 |
| CCn1c(-c2cccnc2[C@H](C)OC)c2c3cc(ccc31)-c1cc(O)cc(c1)C[C@H](NC(=O)[C@H](C(C)C)N(C)C(=O)N1CCN(C(=O)[C@@H]3CN3)C(=O)C1)C(=O)N1CCC[C@H](N1)C(=O)OCC(C)(C)C2 [Compound 194] | > 10 |
| CCn1c(-c2cccnc2[C@H](C)OC)c2c3cc(ccc31)-c1cc(O)cc(c1)C[C@H](NC(=O)[C@H](C(C)C)N(C)C(=O)N(C)C1CN(C(=O)[C@H]3CN3)C1)C(=O)N1CCC[C@H](N1)C(=O)OCC(C)(C)C2 [Compound 203] | > 10 |
| CCn1c(-c2cccnc2[C@H](C)OC)c2c3cc(ccc31)-c1cc(O)cc(c1)C[C@H](NC(=O)[C@H](C(C)C)N(C)C(=O)[C@H]1CCN(C(=O)[C@H]3CN3)[C@H]1C)C(=O)N1CCC[C@H](N1)C(=O)OCC(C)(C)C2 [Compound 206] | > 10 |
| CCn1c(-c2cccnc2[C@H](C)OC)c2c3cc(ccc31)-c1cc(O)cc(c1)C[C@H](NC(=O)[C@@H](COC1CCN(C(=O)[C@H]3CN3)CC1)C(C)C)C(=O)N1CCC[C@H](N1)C(=O)OCC(C)(C)C2 [Compound 211] | > 10 |
| CCn1c(-c2cccnc2[C@H](C)OC)c2c3cc(ccc31)-c1cc(O)cc(c1)C[C@H](NC(=O)[C@H](C(C)C)N(C)C(=O)c1nc(NC(=O)[C@H]3CN3)cs1)C(=O)N1CCC[C@H](N1)C(=O)OCC(C)(C)C2 [Compound 212] | > 10 |
| CCn1c(-c2cccnc2[C@H](C)OC)c2c3cc(ccc31)-c1cc(O)cc(c1)C[C@H](NC(=O)[C@H](C(C)C)N1CC[C@H](NC(=O)[C@H]3CN3)C1=O)C(=O)N1CCC[C@H](N1)C(=O)OCC(C)(C)C2 [Compound 213] | > 10 |
| CCn1c(-c2cccnc2[C@H](C)OC)c2c3cc(ccc31)-c1csc(n1)C[C@H](NC(=O)[C@H](C(C)C)N(C)C(=O)N1CC[C@H]1CN(C)C(=O)[C@@H]1CN1)C(=O)N1CCC[C@H](N1)C(=O)OCC(C)(C)C2 [Compound 235] | > 10 |

Same assay, conditions: Homo sapiens, ASPC1, 120 h, read-out: AsPC-1 Cell Viability IC50, AsPC-1, K-Ras G12D, 5-day treatment

| Compound | IC50 [µM] |
| --- | --- |
| CCn1c(-c2cccnc2[C@H](C)OC)c2c3cc(ccc31)-c1cc(O)cc(c1)C[C@H](NC(=O)[C@H](C(C)C)N(C)C(=O)CN(C)C(=O)[C@H]1N[C@@H]1C1CC1)C(=O)N1CCC[C@H](N1)C(=O)OCC(C)(C)C2 [Compound 135] | 0.1 to 1 |
